One assay addresses RON (human) (Homo sapiens, UniProt Q04912). Nature of the assay: RON kinase AlphaScreen assay (Km of ATP). The format is biochemical. Conditions: ATP at Km; at least duplicate experiments. The essentials: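 AlphaScreen with PT66 donor/acceptor beads, read after 1 h, detected phosphorylation of biotinylated poly(Glu,Tyr) by human RON. Enzyme-started reactions ran 30 min at room temperature with ATP at Km. Buffer was HEPES pH 7.4 with MgCl2, glycerol, vanadate and 1% DMSO.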
(In general: In Alpha technology, singlet oxygen from a donor bead excites a nearby acceptor bead.)

In another assay the target is MET (human) (Homo sapiens, UniProt P08581). Nature of the assay: MET kinase AlphaScreen assay (Km of ATP). The format is biochemical. The settings on record: ATP at Km; at least duplicate experiments. An outline of the steps: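 AlphaScreen detection with PT66 beads (1 h) follows a 60 min room-temperature MET reaction. Substrate is 200 ng/μL biotinylated poly(Glu,Tyr), with ATP set at an enzyme-optimized concentration. Buffer is HEPES pH 7.4 with MgCl2, MnCl2 and 0.334 mM vanadate, compounds at 1% DMSO.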
Chain of MET (human) (P08581 25-1390): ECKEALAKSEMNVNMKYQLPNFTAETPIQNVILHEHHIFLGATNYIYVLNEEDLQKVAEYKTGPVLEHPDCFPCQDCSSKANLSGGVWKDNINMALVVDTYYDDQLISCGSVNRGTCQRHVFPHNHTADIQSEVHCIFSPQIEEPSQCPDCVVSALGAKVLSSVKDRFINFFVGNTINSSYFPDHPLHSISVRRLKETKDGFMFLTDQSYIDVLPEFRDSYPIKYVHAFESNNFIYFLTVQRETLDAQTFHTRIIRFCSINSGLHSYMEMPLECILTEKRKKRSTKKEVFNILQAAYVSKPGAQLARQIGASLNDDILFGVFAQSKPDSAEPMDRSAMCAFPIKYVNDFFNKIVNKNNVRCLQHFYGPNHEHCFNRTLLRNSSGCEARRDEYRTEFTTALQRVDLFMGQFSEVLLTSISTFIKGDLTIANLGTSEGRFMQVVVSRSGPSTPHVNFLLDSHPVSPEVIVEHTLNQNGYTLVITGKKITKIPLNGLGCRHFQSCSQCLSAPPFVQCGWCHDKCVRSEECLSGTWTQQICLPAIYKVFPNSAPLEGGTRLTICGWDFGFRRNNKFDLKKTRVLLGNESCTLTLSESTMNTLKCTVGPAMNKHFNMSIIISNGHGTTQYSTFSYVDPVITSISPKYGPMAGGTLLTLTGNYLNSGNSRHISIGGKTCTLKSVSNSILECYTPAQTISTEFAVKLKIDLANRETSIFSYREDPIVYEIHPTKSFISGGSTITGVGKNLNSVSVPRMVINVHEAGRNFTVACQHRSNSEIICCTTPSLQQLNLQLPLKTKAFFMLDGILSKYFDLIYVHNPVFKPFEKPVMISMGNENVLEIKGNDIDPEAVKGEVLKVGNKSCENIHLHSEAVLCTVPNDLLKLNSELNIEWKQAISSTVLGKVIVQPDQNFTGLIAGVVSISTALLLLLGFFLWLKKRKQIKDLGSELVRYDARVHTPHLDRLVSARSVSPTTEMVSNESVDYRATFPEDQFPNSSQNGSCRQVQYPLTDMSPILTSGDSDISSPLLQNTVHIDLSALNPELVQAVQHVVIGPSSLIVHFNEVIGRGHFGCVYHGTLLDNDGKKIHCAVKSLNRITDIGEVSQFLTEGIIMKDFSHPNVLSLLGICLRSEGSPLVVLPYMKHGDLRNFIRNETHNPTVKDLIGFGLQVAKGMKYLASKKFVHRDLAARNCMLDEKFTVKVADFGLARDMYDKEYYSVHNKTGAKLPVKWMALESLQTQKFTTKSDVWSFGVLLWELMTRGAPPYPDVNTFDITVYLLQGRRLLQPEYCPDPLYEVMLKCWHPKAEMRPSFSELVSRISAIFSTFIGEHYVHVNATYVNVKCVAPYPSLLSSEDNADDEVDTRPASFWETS

Counter-ions that a name gives are not always drawn.

A word on the IC50: it is the point on the concentration scale where inhibition reaches its midpoint. Lower therefore signals inhibition by little substance.

Chain of RON (human) (Q04912 25-1400): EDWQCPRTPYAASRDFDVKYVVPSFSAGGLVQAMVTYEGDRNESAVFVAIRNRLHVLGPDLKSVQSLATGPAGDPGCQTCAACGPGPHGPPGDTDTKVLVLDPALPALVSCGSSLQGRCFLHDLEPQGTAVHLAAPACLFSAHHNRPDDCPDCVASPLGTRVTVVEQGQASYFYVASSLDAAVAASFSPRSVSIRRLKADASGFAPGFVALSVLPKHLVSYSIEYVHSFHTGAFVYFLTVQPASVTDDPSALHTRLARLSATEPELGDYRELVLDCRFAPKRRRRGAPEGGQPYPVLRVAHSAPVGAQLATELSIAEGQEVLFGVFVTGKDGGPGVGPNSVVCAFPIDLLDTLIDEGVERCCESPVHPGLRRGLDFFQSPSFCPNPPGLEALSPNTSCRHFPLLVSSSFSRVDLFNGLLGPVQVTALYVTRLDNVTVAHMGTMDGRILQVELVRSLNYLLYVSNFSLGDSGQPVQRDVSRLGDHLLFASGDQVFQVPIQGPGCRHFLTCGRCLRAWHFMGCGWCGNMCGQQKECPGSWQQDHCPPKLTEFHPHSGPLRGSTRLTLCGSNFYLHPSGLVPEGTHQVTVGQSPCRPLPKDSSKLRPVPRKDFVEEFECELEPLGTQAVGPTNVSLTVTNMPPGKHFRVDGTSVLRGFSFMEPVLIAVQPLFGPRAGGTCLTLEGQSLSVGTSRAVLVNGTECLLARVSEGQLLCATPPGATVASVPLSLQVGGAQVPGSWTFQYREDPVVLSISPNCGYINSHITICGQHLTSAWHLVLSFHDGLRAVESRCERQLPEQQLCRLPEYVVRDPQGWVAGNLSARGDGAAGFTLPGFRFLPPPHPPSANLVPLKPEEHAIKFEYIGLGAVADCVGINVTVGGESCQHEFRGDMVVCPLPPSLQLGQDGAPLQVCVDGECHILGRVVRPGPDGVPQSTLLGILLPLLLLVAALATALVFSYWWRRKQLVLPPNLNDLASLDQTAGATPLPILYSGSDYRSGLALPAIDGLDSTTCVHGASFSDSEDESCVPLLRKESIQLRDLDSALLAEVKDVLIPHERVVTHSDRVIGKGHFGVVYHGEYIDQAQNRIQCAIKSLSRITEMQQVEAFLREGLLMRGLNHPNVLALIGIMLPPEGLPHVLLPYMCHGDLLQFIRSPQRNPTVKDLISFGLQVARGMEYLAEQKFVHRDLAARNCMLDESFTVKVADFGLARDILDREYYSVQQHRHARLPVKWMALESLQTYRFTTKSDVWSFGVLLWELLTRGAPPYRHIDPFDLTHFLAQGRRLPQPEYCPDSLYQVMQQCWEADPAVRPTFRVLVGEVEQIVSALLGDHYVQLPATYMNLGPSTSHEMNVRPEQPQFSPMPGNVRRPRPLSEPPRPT

On to `Nc1ncc(-c2cccc(OCC(=O)O)c2)cc1-c1nc2ccccc2s1` [Example 235, [3-(6-Amino-5-benzothiazol-2-yl-pyridin-3-yl)-phenoxy]acetic acid], for which the IC50 against RON (human) and against MET (human) was 1000 to 20000 nM throughout.

`CCOC(=O)COc1ccc(-c2cnc(N)c(-c3nc4ccccc4s3)c2)cc1` [Example 236, Ethyl 4-[6-amino-5-(1,3-benzothiazol-2-yl)pyridin-3-yl]phenoxyacetate]: the IC50 against RON (human) and against MET (human) was 1000 to 20000 nM throughout.

On to `Nc1ncc(-c2ccc(OCC(=O)O)cc2)cc1-c1nc2ccccc2s1` [Example 237, 4-[6-Amino-5-(1,3-benzothiazol-2-yl)pyridin-3-yl]phenoxyacetic acid], for which the IC50 is 1000 to 20000 nM against RON (human) and 100 to 1000 nM on MET (human).

Take `CNC(=O)COc1ccc(-c2cnc(N)c(-c3nc4ccccc4s3)c2)cc1` [Example 238, 2-[4-(6-Amino-5-benzothiazol-2-ylpyridin-3-yl)-phenoxy]-N-methylacetamide]: the IC50 against RON (human) and at MET (human) was 1000 to 20000 nM throughout.

In the case of `CN(C)C(=O)COc1ccc(-c2cnc(N)c(-c3nc4ccccc4s3)c2)cc1` [Example 239, 2-[4-(6-Amino-5-benzothiazol-2-ylpyridin-3-yl)-phenoxy]-N,N-dimethylacetamide], the IC50 at RON (human) and against MET (human) was 1000 to 20000 nM each time.

With `Nc1ncc(-c2ccc(OCC(=O)NCc3ccccc3)cc2)cc1-c1nc2ccccc2s1` [Example 240, 2-[4-(6-Amino-5-benzothiazol-2-ylpyridin-3-yl)-phenoxy]-N-benzylacetamide], the IC50 on RON (human) and against MET (human) was 1000 to 20000 nM in each case.

As for `Nc1ncc(-c2ccc(OCC(=O)N3CCCC3)cc2)cc1-c1nc2ccccc2s1` [Example 241, 2-[4-(6-Amino-5-benzothiazol-2-ylpyridin-3-yl)phenoxy]-1-pyrrolidin-1-ylethanone], the results for the IC50 against RON (human) and at MET (human) were over 20000 nM and 1000 to 20000 nM, respectively.

Consider `Nc1ncc(-c2ccc(OCC(=O)NCCCN3CCCC3=O)cc2)cc1-c1nc2ccccc2s1` [Example 242, 2-[4-(6-Amino-5-benzothiazol-2-ylpyridin-3-yl)-phenoxy]-N-[3-(2-oxopyrrolidin-1-yl)-propyl]acetamide], for which the IC50 against RON (human) and against MET (human) was 1000 to 20000 nM each time.

Take `Nc1ncc(-c2ccc(OCC(=O)NC3CCCCC3O)cc2)cc1-c1nc2ccccc2s1` (stereo not drawn) [Example 243, 2-[4-(6-Amino-5-benzothiazol-2-ylpyridin-3-yl)phenoxy]-N-(2-hydroxycyclohexyl)acetamide]: the IC50 against RON (human) is over 20000 nM; against MET (human), 1000 to 20000 nM.

Regarding `Nc1ncc(-c2ccc(OCC(=O)N3CCOCC3)cc2)cc1-c1nc2ccccc2s1` [Example 244, 2-[4-(6-Amino-5-benzothiazol-2-ylpyridin-3-yl)phenoxy]-1-morpholin-4-ylethanone], the IC50 at RON (human) is over 20000 nM; against MET (human), 1000 to 20000 nM.

With `Nc1ncc(-c2ccc(OCC(=O)NCC3CCCCC3)cc2)cc1-c1nc2ccccc2s1` [Example 245, 2-[4-(6-Amino-5-benzothiazol-2-ylpyridin-3-yl)phenoxy]-N-cyclohexylmethylacetamide], the IC50 at RON (human) is over 20000 nM; at MET (human), 1000 to 20000 nM.

On to `Nc1ncc(-c2ccc(OCC(=O)N3CCN(CCO)CC3)cc2)cc1-c1nc2ccccc2s1` [Example 246, 2-[4-(6-Amino-5-benzothiazol-2-yl-pyridin-3-yl)phenoxy]-1-[4-(2-hydroxyethyl)piperazin-1-yl]ethanone], for which the IC50 on RON (human) lay within 1000 to 20000 nM; on MET (human), 100 to 1000 nM.

As for `Nc1ncc(-c2cnn(C3CCNCC3)c2)cc1-c1nc2cccc(-c3cn[nH]c3)c2s1` [Example 247, 5-(1-Piperidin-4-yl-1H-pyrazol-4-yl)-3-[7-(1H-pyrazol-4-yl)benzothiazol-2-yl]pyridin-2-ylamine dihydrochloride], the IC50 was 100 to 1000 nM against RON (human) and at most 100 nM at MET (human).

For `Cn1cc(-c2cccc3nc(-c4cc(-c5cnn(C6CCNCC6)c5)cnc4N)sc23)cn1` [Example 248, 3-[7-(1-Methyl-1H-pyrazol-4-yl)benzothiazol-2-yl]-5-(1-piperidin-4-yl-1H-pyrazol-4-yl)pyridin-2-ylamine dihydrochloride], the IC50 on RON (human) and against MET (human) was 100 to 1000 nM in each case.

Take `Nc1ncc(-c2cnn(C3CCNCC3)c2)cc1-c1nc2cccc(-c3ccc[nH]3)c2s1` [Example 249, 5-(1-Piperidin-4-yl-1H-pyrazol-4-yl)-3-[7-(1H-pyrrol-2-yl)benzothiazol-2-yl]pyridin-2-ylamine dihydrochloride]: the IC50 against RON (human) is 100 to 1000 nM; at MET (human), at most 100 nM.

Turning to `Nc1ncc(-c2cnn(C3CCNCC3)c2)cc1-c1nc2cccc(-c3cccnc3)c2s1` [Example 250, 5-(1-Piperidin-4-yl-1H-pyrazol-4-yl)-3-(7-pyridin-3-ylbenzothiazol-2-yl)pyridin-2-ylamine dihydrochloride], the results for the IC50 on RON (human) and at MET (human) were 100 to 1000 nM and at most 100 nM, respectively.

Consider `Nc1ncc(-c2cnn(C3CCNCC3)c2)cc1-c1nc2cccc(-c3cc[nH]c3)c2s1` [Example 251, 5-(1-Piperidin-4-yl-1H-pyrazol-4-yl)-3-[7-(1H-pyrrol-3-yl)benzothiazol-2-yl]pyridin-2-ylamine trifluoroacetate], for which the IC50 on RON (human) and on MET (human) was 100 to 1000 nM in each case.

In the case of `Nc1ncc(-c2cnn(C3CCNCC3)c2)cc1-c1nc2ccc(F)cc2s1` [Example 252, 3-(6-Fluorobenzothiazol-2-yl)-5-(1-piperidin-4-yl-1H-pyrazol-4-yl)-pyridin-2-ylamine], the IC50 against RON (human) and on MET (human) was 100 to 1000 nM each time.

Consider `Nc1ncc(-c2cnn(C3CCNCC3)c2)cc1-c1nc2ccc(Cl)cc2s1` [Example 253, 3-(6-Chlorobenzothiazol-2-yl)-5-(1-piperidin-4-yl-1H-pyrazol-4-yl)-pyridin-2-ylamine], for which the IC50 on RON (human) and on MET (human) was 100 to 1000 nM in each case.

As to `Cc1ccc2nc(-c3cc(-c4cnn(C5CCNCC5)c4)cnc3N)sc2c1` [Example 254, 3-(6-Methylbenzothiazol-2-yl)-5-(1-piperidin-4-yl-1H-pyrazol-4-yl)-pyridin-2-ylamine], the IC50 against RON (human) and against MET (human) was 100 to 1000 nM each time.

For `COc1ccc2nc(-c3cc(-c4cnn(C5CCNCC5)c4)cnc3N)sc2c1` [Example 255, 3-(6-Methoxybenzothiazol-2-yl)-5-(1-piperidin-4-yl-1H-pyrazol-4-yl)-pyridin-2-ylamine], the IC50 on RON (human) and against MET (human) was 100 to 1000 nM throughout.

For the compound `Nc1ncc(-c2cnn(C3CCNCC3)c2)cc1-c1nc2c(F)cccc2s1` [Example 256, 3-(4-Fluorobenzothiazol-2-yl)-5-(1-piperidin-4-yl-1H-pyrazol-4-yl)-pyridin-2-ylamine], the results for the IC50 at RON (human) and against MET (human) were 100 to 1000 nM and at most 100 nM, respectively.

As for `Cc1cccc2sc(-c3cc(-c4cnn(C5CCNCC5)c4)cnc3N)nc12` [Example 257, 3-(4-Methylbenzothiazol-2-yl)-5-(1-piperidin-4-yl-1H-pyrazol-4-yl)-pyridin-2-ylamine], the IC50 against RON (human) and at MET (human) was 100 to 1000 nM throughout.

On to `Nc1ncc(-c2cnn(C3CCNCC3)c2)cc1-c1nc2cc(Cl)ccc2s1` [Example 258, 3-(5-Chlorobenzothiazol-2-yl)-5-(1-piperidin-4-yl-1H-pyrazol-4-yl)-pyridin-2-ylamine], for which the IC50 at RON (human) was 100 to 1000 nM; against MET (human), at most 100 nM.
